Two molecules from PubChem BioAssay AID435027 (Sanford-Burnham Center for Chemical Genomics, 2010) can be followed below.

The target of the assay is Tyrosine-protein phosphatase non-receptor type 22 (Homo sapiens) (UniProt Q9Y2R2). As to the kind of experiment: concentration-dependent PTPN22 LYP inhibition – biochemical, pCAP substrate, fluorescence intensity, dose response (AID 435027). Conditions: recombinant LYP.

What is called IC50 is the concentration at which inhibition is half-maximal.

The structures appear in SMILES notation.

Chain of Tyrosine-protein phosphatase non-receptor type 22 (Homo sapiens) (Q9Y2R2 whole entry, looked up): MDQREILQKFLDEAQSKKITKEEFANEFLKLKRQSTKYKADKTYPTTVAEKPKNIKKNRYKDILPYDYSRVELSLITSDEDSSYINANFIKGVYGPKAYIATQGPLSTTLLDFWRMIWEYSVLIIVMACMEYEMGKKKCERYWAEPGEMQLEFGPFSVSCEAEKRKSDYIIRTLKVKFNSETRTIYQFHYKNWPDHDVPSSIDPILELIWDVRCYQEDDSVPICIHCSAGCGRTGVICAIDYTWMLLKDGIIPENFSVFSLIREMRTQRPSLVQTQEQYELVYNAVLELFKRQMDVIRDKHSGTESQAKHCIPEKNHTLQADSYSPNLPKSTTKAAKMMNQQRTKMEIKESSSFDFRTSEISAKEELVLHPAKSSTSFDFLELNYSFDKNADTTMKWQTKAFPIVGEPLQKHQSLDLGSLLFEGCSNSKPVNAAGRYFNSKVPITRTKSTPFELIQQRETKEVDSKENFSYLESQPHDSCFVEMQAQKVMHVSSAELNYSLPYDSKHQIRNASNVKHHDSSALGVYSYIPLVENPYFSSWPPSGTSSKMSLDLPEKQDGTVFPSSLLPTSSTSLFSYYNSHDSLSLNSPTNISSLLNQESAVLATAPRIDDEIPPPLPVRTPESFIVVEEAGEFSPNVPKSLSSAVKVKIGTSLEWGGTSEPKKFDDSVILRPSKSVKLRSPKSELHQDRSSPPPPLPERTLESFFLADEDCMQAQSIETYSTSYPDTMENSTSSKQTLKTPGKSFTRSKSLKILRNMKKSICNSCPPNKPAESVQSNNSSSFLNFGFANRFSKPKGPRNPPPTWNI

For `O=C(O)CCCN1C(=O)/C(=C/c2ccc(-c3nc4ccccc4s3)o2)SC1=S`, the concentration for half-maximal inhibition (IC50) is 4.76 µM.
The same measure for `Cc1ccc(/C=C/c2nc3sc(C(=O)O)c(C)c3c(=O)[nH]2)cc1[N+](=O)[O-]`: 4.58 µM.
